The values below come from patent US5334595A, “Pyrazoloquinolones as anticancer agents” (priority 1992, dated 1994).

Where two headings read alike, the source gives them in different places.

One assay deals with T1, human topoisomerase II (Homo sapiens, UniProt P11388).
T1 construct: Topo II was purified from late log phase suspension cultures of HeLa WIS; endogenous in cells; host or cells: HeLa WIS
The assay can be described thus: Mammalian topoisomerase II inhibition assay (topo II covalently attached to DNA, relative to mAMSA). It counts as biochemical. The settings on record: read-out: topo II inh. EC50. The essentials: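 HeLa-purified human topo II was reacted with compound for 20 min at 37 °C, and covalent topo II-DNA complexes were recovered by SDS/KCl precipitation and scintillation counting, in duplicate. Compounds were screened at 2, 20 and 200 μg/ml, then titrated. Complex formation is scaled to the maximum at 10 μg/ml mAMSA.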

The subject of assay [1] is P388 murine leukemia cells. The experiment in a line: In vitro cytotoxicity, one-hour exposure, clonogenic survival of P388 cells. The format is cell-based. The settings on record: Mus musculus, read-out: in vitro cytotoxicity IC50, 1 hr exp. The essentials:
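For continuous exposure, log-phase P388 murine leukemia cells were co-incubated with a range of compound concentrations for 48 hours and total cells counted on a Coulter counter. For one-hour exposure, survival was scored as soft-agar colonies after 7-10 days at 37° C and 5% CO2. Survival is expressed relative to untreated control.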

Setting [2] is: footnote c: bell-shaped dose response curve noted, 50% of maximal effect of mAMSA.
Setting [3] is: conc. achieving 50% of maximal effect of mAMSA, topo II from HeLa cells.

T1 sequence (P11388 whole entry): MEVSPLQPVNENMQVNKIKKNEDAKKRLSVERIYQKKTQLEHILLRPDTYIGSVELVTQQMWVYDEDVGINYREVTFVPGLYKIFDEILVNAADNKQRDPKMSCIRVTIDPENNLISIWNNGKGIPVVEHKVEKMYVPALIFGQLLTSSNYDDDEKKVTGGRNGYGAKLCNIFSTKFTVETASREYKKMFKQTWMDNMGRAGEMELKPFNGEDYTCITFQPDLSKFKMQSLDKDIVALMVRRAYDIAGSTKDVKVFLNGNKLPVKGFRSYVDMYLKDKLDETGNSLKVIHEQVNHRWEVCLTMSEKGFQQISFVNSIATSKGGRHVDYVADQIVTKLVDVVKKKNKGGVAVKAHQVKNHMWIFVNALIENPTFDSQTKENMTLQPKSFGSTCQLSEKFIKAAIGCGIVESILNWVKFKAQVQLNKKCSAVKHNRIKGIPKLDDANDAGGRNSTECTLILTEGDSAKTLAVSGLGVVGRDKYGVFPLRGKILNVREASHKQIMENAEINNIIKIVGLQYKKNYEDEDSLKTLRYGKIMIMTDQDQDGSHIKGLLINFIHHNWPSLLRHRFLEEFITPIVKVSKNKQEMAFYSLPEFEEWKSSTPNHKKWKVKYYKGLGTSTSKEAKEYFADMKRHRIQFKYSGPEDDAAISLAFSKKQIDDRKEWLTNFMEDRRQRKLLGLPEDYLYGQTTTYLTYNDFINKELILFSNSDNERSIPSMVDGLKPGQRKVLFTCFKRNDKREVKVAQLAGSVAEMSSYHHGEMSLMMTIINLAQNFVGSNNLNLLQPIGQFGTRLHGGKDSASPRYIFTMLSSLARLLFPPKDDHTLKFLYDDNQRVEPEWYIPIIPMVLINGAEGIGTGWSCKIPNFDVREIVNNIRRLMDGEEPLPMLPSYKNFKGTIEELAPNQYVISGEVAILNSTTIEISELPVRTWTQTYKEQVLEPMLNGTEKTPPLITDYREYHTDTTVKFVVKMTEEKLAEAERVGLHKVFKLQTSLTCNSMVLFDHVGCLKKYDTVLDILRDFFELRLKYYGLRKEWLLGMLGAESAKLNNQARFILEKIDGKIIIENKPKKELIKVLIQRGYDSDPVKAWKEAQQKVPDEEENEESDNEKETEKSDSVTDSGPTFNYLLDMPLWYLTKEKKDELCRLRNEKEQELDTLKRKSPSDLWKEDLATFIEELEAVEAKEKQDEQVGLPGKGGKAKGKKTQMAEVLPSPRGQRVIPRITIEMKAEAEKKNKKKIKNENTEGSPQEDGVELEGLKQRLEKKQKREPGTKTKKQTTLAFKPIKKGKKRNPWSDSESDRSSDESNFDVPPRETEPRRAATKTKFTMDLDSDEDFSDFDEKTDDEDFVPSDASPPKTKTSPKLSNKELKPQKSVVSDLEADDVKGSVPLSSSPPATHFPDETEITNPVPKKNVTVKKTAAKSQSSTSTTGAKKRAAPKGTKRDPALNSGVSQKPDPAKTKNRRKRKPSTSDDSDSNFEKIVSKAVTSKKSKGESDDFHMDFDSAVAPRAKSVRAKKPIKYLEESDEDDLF

For `Cc1cc(-c2c(F)cc3c4nn(CCN(C)C)c(=O)c-4cn(C4CC4)c3c2F)cc(C)n1.O=C(O)/C=C/C(=O)O` [Example 1, 5-Cyclopropyl-6,8-difluoro-2,5-dihydro-2-[2-(dimethylamino)-ethyl]-7-(2,6-dimethyl-4-pyridinyl)-3H-pyrazolo[4,3-c]quinolin-3-one (E)-2-butendioate (1:1)], the EC50 (commonly the concentration giving half of the maximal effect) at human topoisomerase II (setting [2]) was found to be 2600 nM. For the same compound, the 50% inhibitory concentration (IC50) – broadly, the concentration that inhibits the measured activity by half – in assay [1] (P388, 1 h) stood at 260 nM.
Turning to `Cc1cc(-c2c(F)cc3c4nn(CCCN(C)C)c(=O)c-4cn(C4CC4)c3c2F)cc(C)n1` [Example 14], on human topoisomerase II (setting [3]), the EC50 is 1700 nM. For the same compound, in assay [1] (P388, 1 hr exposure), the IC50 turned out to be 160 nM.
For `Cc1cc(-c2c(F)cc3c4nn(CCNCCO)c(=O)c-4cn(C4CC4)c3c2F)cc(C)n1` [Example 17], the concentration giving a half-maximal response (EC50) at human topoisomerase II (setting [2]) came out at 3300 nM. Besides, in assay [1] (P388, 1 hr exposure), the half-maximal inhibitory concentration (IC50) amounted to 1300 nM.
Consider `Cc1cc(-c2c(F)cc3c4nn([C@H]5CC[C@@H](N(C)C)CC5)c(=O)c-4cn(C4CC4)c3c2F)cc(C)n1` [Example 51a], for which the EC50 on human topoisomerase II (setting [3]) amounted to 1700 nM. Moreover, the concentration for half-maximal inhibition (IC50) in assay [1] (P388, 1 hr exposure) is 67 nM.
Turning to `Cc1cc(-c2c(F)cc3c4nn([C@H]5CC[C@H](N(C)C)CC5)c(=O)c-4cn(C4CC4)c3c2F)cc(C)n1` [Example 51b], the 50% effective concentration (EC50) on human topoisomerase II (setting [3]) stood at 4400 nM. For the same compound, the half-maximal inhibitory concentration (IC50) in assay [1] (P388, 1 hr exposure) is 260 nM.
For `Cc1cc(-c2c(F)cc3c4nn([C@H]5CC[C@@H](N)CC5)c(=O)c-4cn(C4CC4)c3c2F)cc(C)n1` [Example 56a, 2-(Cis-4-Aminocyclohexyl)-5-cyclopropyl-6,8-difluoro-2,5-dihydro-7-(2,6-dimethyl-4-pyridinyl)-3H-pyrazolo-[4,3-c]quinolin-3-one] the same measures were 500 nM and 440 nM.
